Experimental data: publication PMC11475281, “A Novel Liver Cancer-Selective Histone Deacetylase Inhibitor Is Effective against Hepatocellular Carcinoma and Induces Durable Responses with Immunotherapy” (ACS Pharmacology & Translational Science, 2024)

Tests used:
[1] = tested on: NCI-60 panel cancer cells; test: NCI-60 panel one-dose screen; assay type: cell-based; details: 10 μM
Procedure: To further investigate the cancer cell-type selectivity of these glycosylated HDACi, we screened STR-V-53 (10 μM) in the NCI 60 panel. […] The antiproliferative effect of STR-V-53 against Hep-G2 cells and its lack of growth inhibition in the NCI-60 panel strongly support the HCC cell-selective attribute of STR-V-53 and possibly other lead glycosylated HDACi identified herein.

[2] = Plasma stability (Cyprotex); assay type: in vitro ADME
Procedure: Based on the data from the aforementioned in vitro studies, we selected STR-V-53 as a candidate for further evaluation in xenograft and murine models of HCC. Before the efficacy studies, we first determined the plasma stability (murine and human) and maximum tolerated dose (MTD) of STR-V-53 in healthy C57Bl/6 mice. […]. For MTD determination, STR-V-53 was administered via i.p. injection using a formulation containing excipients found in FDA-approved drugs—dimethylacetamide (DMA)/Cremophor RH 40 (CRH)/Water (10%/20%/70%)—that we developed.[17] […]
Then cells were treated with another 500 µL of 100 ug/mL PI staining at room temperature for 30 min. The cell cycle was analyzed with BD FACS Aria Illu analyzer, and the data were […]
The stability of STR-V-53 in murine and human plasmas was determined through a contract agreement with Cyprotex, an Evotec Company (https://www.cyprotex.com) […]
days in Kolliphor/DMA/water vehicle. We measured body weight and monitored daily food consumption, overall health, and mortality. […]
C57Bl/6 mice, 6–8 weeks old, 3 males and 3 females per treatment group, were injected intraperitoneally with STR-V-53 at […] in Kolliphor/DMA/water vehicle. Eight hours after the injection, organs were harvested and frozen at −80 °C for subsequent quantification by LC-

[3] = tested on: Hep-G2-Red-FLuc intrahepatic tumors; test: Orthotopic xenograft model of Hep-G2-Red-FLuc human HCC; assay type: in vivo, mice
Source text: Next, we evaluated the effects of STR-V-53 on tumor growth in an orthotopic murine model of Hep-G2-Red-FLuc Bioware Brite Cell Line (PerkinElmer) in mice. Mice (6–8 weeks old) were orthotopically implanted through a direct intrahepatic artery injection with Hep-G2-Red-FLuc cells according to published protocols.[38] We used the Red-Fluc expression to confirm tumor implantation by bioluminescent imaging using IVIS. Treatment began after imaging confirmed the establishment of intrahepatic tumors (approximately 7 days). Mice were grouped into cohorts with similar average relative chemiluminescence. Tumor-bearing mice in the treatment groups were injected daily with 200 μL of solution of STR-V-53, SORA, or a combination of STR-V-53 and SORA for 21 days via the i.p. route. No treatment group received vehicle only. After treatment, mice were imaged again, sacrificed, and liver samples were harvested to determine the effects of treatment on tumor size by measurement with calipers. […] Moreover, the combination therapy of SORA (10 mg/kg) and STR-V-53 (25 mg/kg) is more efficacious than either drug as a standalone agent.
Signaling Technology), respectively, for immunostaining. […]
(Armenian Hamster monoclonal antibody, clone 2H8, Millipore). Positive cells were counted from five random fields for each HCC tissue section. […]
monitored by high-frequency ultrasonography. […]

Hep-G2 cells = test: RNA-seq gene set enrichment analysis (Hallmark and GOBP GSEA); assay type: cell-based, human; details: 24 h
Procedure: To obtain transcriptome level evidence that may shed light on the HCC-selectivity and/or the enhanced potency of the combination of STR-V-53 with anti-PD-1 antibody, we performed RNA sequencing (RNA-seq) analysis on STR-V-53-treated Hep-G2 cells, incubated at IC50 and 2× IC50 for 24 h, relative to the untreated (DMSO) control. We first conducted gene set enrichment analysis (GSEA) using hallmark and gene ontology biological process (GOBP) gene sets to analyze the effect of STR-V-53 vs DMSO-treated control on the Hep-G2 transcriptome.[42],[43] […] Negative enrichment of the G2 M checkpoint pathway supports the finding that STR-V-53 induced S phase arrest in Hep-G2 cells (see Figure 4). […]
and allowed to grow for 48 hours.
RCF, with this washing step repeated twice. Next, using RNeasy Plus Mini Kit and Qiagen QIAcube […]
determined using a DeNovix spectrophotometer. Subsequently, quality control of the RNA samples was […]
(base call error rate of […]).
FASTQ files of samples were analyzed through the RNA-seq pipeline provided by the Gryder lab1. Reads were aligned to hg38 using STAR version 2.5.3a, and gene expression was calculated as Transcripts per Million mapped reads (TPM) using RSEM version 1.3.3 and filtered for coding genes. Differentially expressed genes lists were generated for each sample by calculating log2 fold change of the averaged sample TPM versus the averaged DMSO-treated control cells TPM and filtering for genes with |log2 fold change| > -1 and false discovery rate < 0.25. Hallmark2 and gene ontology biological processes (GOBP)3 gene set enrichment analysis (GSEA) was performed on the differentially expressed gene lists using the GSEA software (parameters: Run GSEAPreranked, Collapse/Remap- No_Collapse)4. GSEA results were interpreted and visualized using scripts provided by the Gryder lab1.Volcano plots were generated using DESeq2v1.41.1 and visualized with the ggplot2 R packages5,6. […]

With O=C(CCCCCCn1cc(-c2ccc(O[C@H]3O[C@H](CO)[C@@H](O)[C@H](O)[C@H]3O)cc2)nn1)NO [STR-V-53] the “Mean cell growth in NCI-60 panel” value [1] was 99.6%, the half-life ([2]; human plasma) was over 1200 min and the half-life ([2]; mouse, murine plasma) was 46 min. The “Tumor growth inhibition (TGI)” value ([3]; 25 mg/kg daily i.p. for 21 days) was 60%, the “Tumor growth inhibition (TGI)” value ([3]; 50 mg/kg daily i.p. for 21 days) was 68% and the “NES, G2/M checkpoint (Hallmark GSEA)” value (Hep-G2 cells; 2× IC50 (20 μM)) was −2.2. For the same molecule, the “NES, MYC targets v1 (Hallmark GSEA)” value (Hep-G2 cells; 2× IC50 (20 μM)) was −2.3, the “NES, MYC targets v2 (Hallmark GSEA)” value (Hep-G2 cells; 2× IC50 (20 μM)) was −2.6 and the “NES, PI3K/Akt/mTOR signaling (Hallmark GSEA)” value (Hep-G2 cells; 2× IC50 (20 μM)) was −1.7. The “NES, antimicrobial humoral immune response mediated by an antimicrobial peptide (GOBP GSEA)” value (Hep-G2 cells; 2× IC50 (20 μM)) was 1.9, the “NES, cytokine-mediated signaling pathway (GOBP GSEA)” value (Hep-G2 cells; 2× IC50 (20 μM)) was −1.4 and the “NES, glucose-regulated transcription genes (GOBP GSEA)” value (Hep-G2 cells; 2× IC50 (20 μM)) was −1.8. For the same molecule, the “NES, humoral immune response (GOBP GSEA)” value (Hep-G2 cells; 2× IC50 (20 μM)) was 1.7, the “NES, innate immune response in the mucosa (GOBP GSEA)” value (Hep-G2 cells; 2× IC50 (20 μM)) was 2.3 and the “NES, p53 pathway (Hallmark GSEA)” value (Hep-G2 cells; 2× IC50 (20 μM)) was 1.6. For the same molecule, the “NES, positive regulation of glucose import (GOBP GSEA)” value (Hep-G2 cells; 2× IC50 (20 μM)) was −1.6, the “NES, G2/M checkpoint (Hallmark GSEA)” value (Hep-G2 cells; IC50 (10 μM)) was −2.9 and the “NES, MYC targets v1 (Hallmark GSEA)” value (Hep-G2 cells; IC50 (10 μM)) was −2.6. For the same molecule, the “NES, MYC targets v2 (Hallmark GSEA)” value (Hep-G2 cells; IC50 (10 μM)) was −2.3, the “NES, antimicrobial humoral immune response mediated by an antimicrobial peptide (GOBP GSEA)” value (Hep-G2 cells; IC50 (10 μM)) was 1.9 and the “NES, glucose-regulated transcription genes (GOBP GSEA)” value (Hep-G2 cells; IC50 (10 μM)) was −1.8. For the same molecule, the “NES, humoral immune response (GOBP GSEA)” value (Hep-G2 cells; IC50 (10 μM)) was 1.9 and the “NES, innate immune response in the mucosa (GOBP GSEA)” value (Hep-G2 cells; IC50 (10 μM)) was 2.1.
